Experimental data as given in ChEMBL document CHEMBL2074371, “The dietary polyphenol ellagic acid is a potent inhibitor of hOAT1” (Drug Metab Dispos, 2005).

Tests used:
[1] = target: T1, Solute carrier family 22 member 6 (Homo sapiens, UniProt Q4U2R8); assay: (§1) TP_TRANSPORTER: uptake in Xenopus laevis oocytes; assay type: functional, cell-based; conditions: oocyte
T1 sequence (Q4U2R8 whole entry): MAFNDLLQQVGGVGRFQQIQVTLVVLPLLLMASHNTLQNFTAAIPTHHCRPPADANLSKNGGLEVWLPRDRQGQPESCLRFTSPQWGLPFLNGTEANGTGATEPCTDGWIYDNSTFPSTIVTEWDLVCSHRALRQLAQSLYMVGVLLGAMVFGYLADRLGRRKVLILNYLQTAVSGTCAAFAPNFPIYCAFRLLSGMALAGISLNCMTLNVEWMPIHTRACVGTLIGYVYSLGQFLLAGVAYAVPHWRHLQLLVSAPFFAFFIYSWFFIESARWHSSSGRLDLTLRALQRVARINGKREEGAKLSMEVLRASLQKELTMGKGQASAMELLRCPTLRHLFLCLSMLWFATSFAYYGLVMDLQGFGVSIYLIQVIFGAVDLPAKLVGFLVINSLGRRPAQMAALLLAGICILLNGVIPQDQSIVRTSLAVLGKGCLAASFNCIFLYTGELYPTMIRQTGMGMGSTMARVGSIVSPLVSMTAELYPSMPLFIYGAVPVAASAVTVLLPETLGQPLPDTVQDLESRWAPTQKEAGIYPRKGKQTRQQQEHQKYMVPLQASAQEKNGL

[2] = target: T2, Solute carrier family 22 member 11 (Homo sapiens, UniProt Q9NSA0); assay: as §1; assay type: functional, cell-based; conditions: oocyte
T2 sequence (Q9NSA0 whole entry): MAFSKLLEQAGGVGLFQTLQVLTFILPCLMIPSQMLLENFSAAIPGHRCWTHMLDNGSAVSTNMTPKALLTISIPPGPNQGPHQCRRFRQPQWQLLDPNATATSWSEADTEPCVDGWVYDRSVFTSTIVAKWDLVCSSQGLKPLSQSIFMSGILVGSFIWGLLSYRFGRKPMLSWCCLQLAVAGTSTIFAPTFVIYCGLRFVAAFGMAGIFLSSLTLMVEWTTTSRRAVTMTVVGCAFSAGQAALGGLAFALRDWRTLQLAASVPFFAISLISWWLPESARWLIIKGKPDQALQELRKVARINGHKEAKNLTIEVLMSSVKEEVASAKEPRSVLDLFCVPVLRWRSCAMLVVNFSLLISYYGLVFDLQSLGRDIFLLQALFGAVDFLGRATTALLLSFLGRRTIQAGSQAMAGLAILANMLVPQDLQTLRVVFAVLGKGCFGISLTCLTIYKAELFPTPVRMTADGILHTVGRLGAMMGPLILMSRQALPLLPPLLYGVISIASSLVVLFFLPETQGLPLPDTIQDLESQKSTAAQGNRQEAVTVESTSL

[3] = target: T2, Solute carrier family 22 member 11; assay: TP_TRANSPORTER: inhibition of p-aminohippurate uptake (p-aminohippurate / 10uM) by ellagic acid at a concentration of 35uM in Xenopus laevis oocytes; assay type: functional, cell-based; design: scale not given: the % may be the effect or the level left; conditions: oocyte
[4] = target: T1, Solute carrier family 22 member 6; assay: TP_TRANSPORTER: inhibition of ochratoxin A uptake (ochratoxin A / 1uM) in Xenopus laevis oocytes; assay type: functional, cell-based, Oocyte

## O=c1oc2c(O)c(O)cc3c(=O)oc4c(O)c(O)cc1c4c23 [ELLAGIC ACID]
[1]
  Activity: substrate [+]
[2]
  Activity: substrate [+]
[3]
  Activity: 35%
[4]
  IC50: 270 nM
